# Measurements from article PMC4286029 (Inflammation Research, 2014).
# What was measured:
# cKit = biological target: T1, cKit (Homo sapiens, UniProt P10721); assay: KinaseProfiler selectivity: cKit; type: biochemical
# T1 construct: purchased Millipore Co. Ltd. (KinaseProfiler service)
# Experimental: (§1) […]; The selectivity of JTE-052 for other kinases was assessed using KinaseProfiler™ (Millipore Co. Ltd.). […].
# CDK2/cyclinA = biological target: T2, CDK2/cyclinA (Homo sapiens, UniProt P24941); assay: KinaseProfiler selectivity: CDK2/cyclinA; type: biochemical
# T2 construct: purchased Millipore Co. Ltd. (KinaseProfiler service)
# Experimental: as §1
# SGK = biological target: T3, SGK (Homo sapiens, UniProt O00141); assay: KinaseProfiler selectivity: SGK; type: biochemical
# T3 construct: purchased Millipore Co. Ltd. (KinaseProfiler service)
# Experimental: as §1
# CDK1/cyclinB = biological target: T4, CDK1/cyclinB (Homo sapiens, UniProt P06493); assay: KinaseProfiler selectivity: CDK1/cyclinB; type: biochemical
# T4 construct: purchased Millipore Co. Ltd. (KinaseProfiler service)
# Experimental: as §1
# GSK3β = biological target: T5, GSK3β (Homo sapiens, UniProt P49841); assay: KinaseProfiler selectivity: GSK3β; type: biochemical
# T5 construct: purchased Millipore Co. Ltd. (KinaseProfiler service)
# T5 sequence (P49841 whole entry, species assumed): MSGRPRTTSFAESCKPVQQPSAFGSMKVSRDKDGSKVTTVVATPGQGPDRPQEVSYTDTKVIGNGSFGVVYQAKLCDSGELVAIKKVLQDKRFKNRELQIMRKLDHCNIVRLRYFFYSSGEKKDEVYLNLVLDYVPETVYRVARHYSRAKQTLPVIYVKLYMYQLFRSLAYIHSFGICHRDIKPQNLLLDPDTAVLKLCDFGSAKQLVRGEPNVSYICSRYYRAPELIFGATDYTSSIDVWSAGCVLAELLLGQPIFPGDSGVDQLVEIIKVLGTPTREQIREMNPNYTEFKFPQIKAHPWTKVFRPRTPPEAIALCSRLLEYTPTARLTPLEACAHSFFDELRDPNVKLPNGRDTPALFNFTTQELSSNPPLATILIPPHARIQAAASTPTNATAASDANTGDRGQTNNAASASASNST
# Experimental: as §1
# PDK1 = biological target: T6, PDK1 (Homo sapiens, UniProt O15530); assay: KinaseProfiler selectivity: PDK1; type: biochemical
# T6 construct: purchased Millipore Co. Ltd. (KinaseProfiler service)
# T6 sequence (O15530 whole entry): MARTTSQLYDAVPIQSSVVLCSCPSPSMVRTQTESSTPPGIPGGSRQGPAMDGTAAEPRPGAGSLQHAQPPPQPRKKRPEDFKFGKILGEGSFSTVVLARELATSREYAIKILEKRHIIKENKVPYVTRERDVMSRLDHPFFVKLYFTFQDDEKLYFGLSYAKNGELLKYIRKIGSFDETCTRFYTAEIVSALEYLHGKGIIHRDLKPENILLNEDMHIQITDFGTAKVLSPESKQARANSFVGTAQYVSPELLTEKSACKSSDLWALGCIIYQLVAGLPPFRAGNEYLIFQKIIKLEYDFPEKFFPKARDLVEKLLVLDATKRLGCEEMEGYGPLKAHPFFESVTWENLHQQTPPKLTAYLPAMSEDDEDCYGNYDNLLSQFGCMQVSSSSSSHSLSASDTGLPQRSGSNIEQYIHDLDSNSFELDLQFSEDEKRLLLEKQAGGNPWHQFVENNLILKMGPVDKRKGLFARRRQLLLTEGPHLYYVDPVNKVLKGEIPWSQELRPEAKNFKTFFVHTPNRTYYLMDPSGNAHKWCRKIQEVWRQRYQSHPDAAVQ
# Experimental: as §1
# FGFR3 = biological target: T7, FGFR3 (Homo sapiens, UniProt P22607); assay: KinaseProfiler selectivity: FGFR3; type: biochemical
# T7 construct: purchased Millipore Co. Ltd. (KinaseProfiler service)
# Experimental: as §1
# PKCζ = biological target: T8, PKCζ (Homo sapiens, UniProt Q05513); assay: KinaseProfiler selectivity: PKCζ; type: biochemical
# T8 construct: purchased Millipore Co. Ltd. (KinaseProfiler service)
# T8 sequence (Q05513 whole entry): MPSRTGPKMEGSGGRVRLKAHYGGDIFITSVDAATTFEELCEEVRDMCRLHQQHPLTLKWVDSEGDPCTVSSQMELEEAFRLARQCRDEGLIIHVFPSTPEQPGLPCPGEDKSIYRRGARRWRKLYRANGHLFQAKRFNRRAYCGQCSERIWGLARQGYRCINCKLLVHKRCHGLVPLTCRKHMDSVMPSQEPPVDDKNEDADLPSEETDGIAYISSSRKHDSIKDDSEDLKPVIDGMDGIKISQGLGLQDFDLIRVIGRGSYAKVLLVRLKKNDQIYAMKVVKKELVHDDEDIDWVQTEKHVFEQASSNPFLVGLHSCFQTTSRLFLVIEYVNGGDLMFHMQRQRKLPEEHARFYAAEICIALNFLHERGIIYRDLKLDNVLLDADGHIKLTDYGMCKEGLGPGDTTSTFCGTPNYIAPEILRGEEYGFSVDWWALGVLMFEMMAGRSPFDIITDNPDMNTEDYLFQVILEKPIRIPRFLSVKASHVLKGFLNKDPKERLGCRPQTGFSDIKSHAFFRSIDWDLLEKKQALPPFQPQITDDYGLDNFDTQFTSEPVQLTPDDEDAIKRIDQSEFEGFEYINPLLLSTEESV
# Experimental: as §1
# IGF-1R = biological target: T9, IGF-1R (Homo sapiens, UniProt P08069); assay: KinaseProfiler selectivity: IGF-1R; type: biochemical
# T9 construct: purchased Millipore Co. Ltd. (KinaseProfiler service)
# Experimental: as §1
# SAPK2a = biological target: T10, SAPK2a (Homo sapiens, UniProt Q16539); assay: KinaseProfiler selectivity: SAPK2a; type: biochemical
# T10 construct: purchased Millipore Co. Ltd. (KinaseProfiler service)
# Experimental: as §1
# CK2 = biological target: T11, CK2 (Homo sapiens, UniProt P68400); assay: KinaseProfiler selectivity: CK2; type: biochemical
# T11 construct: purchased Millipore Co. Ltd. (KinaseProfiler service)
# Experimental: as §1
# Plk1 = biological target: T12, Plk1 (Homo sapiens, UniProt P53350); assay: KinaseProfiler selectivity: Plk1; type: biochemical
# T12 construct: purchased Millipore Co. Ltd. (KinaseProfiler service)
# T12 sequence (P53350 whole entry, species assumed): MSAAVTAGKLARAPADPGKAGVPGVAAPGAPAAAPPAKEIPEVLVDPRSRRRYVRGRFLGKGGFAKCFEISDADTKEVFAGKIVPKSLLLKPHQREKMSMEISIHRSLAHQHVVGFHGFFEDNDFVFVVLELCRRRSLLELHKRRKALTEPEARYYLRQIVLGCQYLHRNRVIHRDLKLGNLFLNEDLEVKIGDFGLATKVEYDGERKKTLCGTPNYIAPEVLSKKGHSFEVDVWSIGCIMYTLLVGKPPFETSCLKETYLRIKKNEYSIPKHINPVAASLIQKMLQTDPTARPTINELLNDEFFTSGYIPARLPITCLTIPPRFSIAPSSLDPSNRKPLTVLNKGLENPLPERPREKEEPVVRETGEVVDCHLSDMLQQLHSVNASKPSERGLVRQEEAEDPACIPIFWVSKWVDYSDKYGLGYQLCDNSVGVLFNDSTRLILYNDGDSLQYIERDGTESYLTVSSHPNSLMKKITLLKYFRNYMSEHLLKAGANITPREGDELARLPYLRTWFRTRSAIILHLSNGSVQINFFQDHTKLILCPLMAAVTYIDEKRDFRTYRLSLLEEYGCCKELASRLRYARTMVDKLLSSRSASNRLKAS
# Experimental: as §1
# Flt3 = biological target: T13, Flt3 (Homo sapiens, UniProt P36888); assay: KinaseProfiler selectivity: Flt3; type: biochemical
# T13 construct: purchased Millipore Co. Ltd. (KinaseProfiler service)
# Experimental: as §1
# Aurora-A = biological target: T14, Aurora-A (Homo sapiens, UniProt O14965); assay: KinaseProfiler selectivity: Aurora-A; type: biochemical
# T14 construct: purchased Millipore Co. Ltd. (KinaseProfiler service)
# Experimental: as §1
# IKKβ = biological target: T15, IKKβ (Homo sapiens, UniProt O14920); assay: KinaseProfiler selectivity: IKKβ; type: biochemical
# T15 construct: purchased Millipore Co. Ltd. (KinaseProfiler service)
# Experimental: as §1
# PDGFRα = biological target: T16, PDGFRα (Homo sapiens, UniProt P16234); assay: KinaseProfiler selectivity: PDGFRα; type: biochemical
# T16 construct: purchased Millipore Co. Ltd. (KinaseProfiler service)
# Experimental: as §1
# JNK2α2 = biological target: T17, JNK2α2 (Homo sapiens, UniProt P45984); assay: KinaseProfiler selectivity: JNK2α2; type: biochemical
# T17 construct: purchased Millipore Co. Ltd. (KinaseProfiler service)
# T17 sequence (P45984 whole entry): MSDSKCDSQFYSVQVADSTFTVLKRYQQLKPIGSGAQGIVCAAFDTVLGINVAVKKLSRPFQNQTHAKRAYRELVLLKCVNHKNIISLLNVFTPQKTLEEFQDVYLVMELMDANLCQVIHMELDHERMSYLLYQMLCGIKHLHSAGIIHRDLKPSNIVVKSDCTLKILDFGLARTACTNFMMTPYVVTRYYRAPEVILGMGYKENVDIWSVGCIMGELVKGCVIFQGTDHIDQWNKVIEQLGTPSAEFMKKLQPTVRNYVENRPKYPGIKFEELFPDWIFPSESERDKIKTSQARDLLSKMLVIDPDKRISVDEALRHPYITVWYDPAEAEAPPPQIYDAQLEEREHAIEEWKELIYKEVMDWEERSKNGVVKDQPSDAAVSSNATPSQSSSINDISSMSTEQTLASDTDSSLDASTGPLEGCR
# Experimental: as §1
# JNK1α1 = biological target: T18, JNK1α1 (Homo sapiens, UniProt P45983); assay: KinaseProfiler selectivity: JNK1α1; type: biochemical
# T18 construct: purchased Millipore Co. Ltd. (KinaseProfiler service)
# T18 sequence (P45983 1-384 isoform P45983-2, species assumed): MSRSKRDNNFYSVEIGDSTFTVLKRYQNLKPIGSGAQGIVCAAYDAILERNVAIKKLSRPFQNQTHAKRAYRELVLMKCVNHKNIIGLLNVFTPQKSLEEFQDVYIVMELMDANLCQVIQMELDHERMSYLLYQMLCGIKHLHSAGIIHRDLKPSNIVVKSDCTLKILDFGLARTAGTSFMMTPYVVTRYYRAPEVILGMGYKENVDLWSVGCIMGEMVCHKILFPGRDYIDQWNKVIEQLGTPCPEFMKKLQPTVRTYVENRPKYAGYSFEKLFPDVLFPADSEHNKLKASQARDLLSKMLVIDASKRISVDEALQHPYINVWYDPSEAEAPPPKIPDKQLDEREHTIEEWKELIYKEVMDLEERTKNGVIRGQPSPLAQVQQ
# Experimental: as §1
# JNK3 = biological target: T19, JNK3 (Homo sapiens, UniProt P53779); assay: KinaseProfiler selectivity: JNK3; type: biochemical
# T19 construct: purchased Millipore Co. Ltd. (KinaseProfiler service)
# Experimental: as §1
# ROCK-II = biological target: T20, ROCK-II (Homo sapiens, UniProt O75116); assay: KinaseProfiler selectivity: ROCK-II; type: biochemical
# T20 construct: purchased Millipore Co. Ltd. (KinaseProfiler service)
# Experimental: as §1
# CSK = biological target: T21, CSK (Homo sapiens, UniProt P41240); assay: KinaseProfiler selectivity: CSK; type: biochemical
# T21 construct: purchased Millipore Co. Ltd. (KinaseProfiler service)
# T21 sequence (P41240 whole entry, species assumed): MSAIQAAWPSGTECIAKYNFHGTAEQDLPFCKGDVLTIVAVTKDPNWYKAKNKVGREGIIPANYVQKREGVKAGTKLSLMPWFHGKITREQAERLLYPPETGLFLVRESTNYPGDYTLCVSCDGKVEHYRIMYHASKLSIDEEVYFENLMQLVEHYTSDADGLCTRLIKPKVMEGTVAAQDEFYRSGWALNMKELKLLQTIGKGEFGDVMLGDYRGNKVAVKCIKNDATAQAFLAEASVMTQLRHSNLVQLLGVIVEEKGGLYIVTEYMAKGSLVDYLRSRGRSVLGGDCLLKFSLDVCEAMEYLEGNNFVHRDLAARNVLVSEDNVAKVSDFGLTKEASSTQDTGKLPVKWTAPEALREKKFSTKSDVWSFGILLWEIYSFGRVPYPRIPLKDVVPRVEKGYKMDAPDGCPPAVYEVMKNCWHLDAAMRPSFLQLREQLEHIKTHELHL
# Experimental: as §1
# [1] = test system: rat collagen-induced arthritis model; assay: Collagen-induced arthritis in rats; type: in vivo, Lewis rats
# Experimental: CIA was induced in rats as previously described with some modifications. Briefly, type II collagen (Collagen Research Center, Saitama, Japan) was dissolved in 0.01 M acetic acid at 2 mg/mL, and the solution was emulsified in an equal volume of Freund’s incomplete adjuvant (Difco Laboratories, Detroit, MI). Lewis rats were immunized with 1 mL of the emulsion (1 mg of type II collagen) via ten intradermal injections on the back under anesthesia. The rats were then challenged with 0.2 mL of the emulsion injected into the base of the tail on day 8 under anesthesia. The test drugs were given orally once daily from day 1 to day 21 (preventive administration) or from day 15 to day 28 (therapeutic administration). After arthritis induction, the hind paw volume was measured by a water displacement method using a plethysmometer (Muromachi Kikai Co. Ltd., Tokyo, Japan). On day 22 or day 29, the rats were euthanized, and their hind paws were excised and X-rayed or processed for histological evaluation. Radiographs of the right hindlimbs were taken using a microfocal cone-beam X-ray CT scanner (MCT-CB100MF; Hitachi Medical Corporation, Tokyo, Japan). The severity of bone destruction was scored on a 3-point scale ranging from 0 to 2 for the following five joints: second metatarsal—second intertarsal joint, third metatarsal—third intertarsal joint, talus—central intertarsal joint, calcaneus—fourth intertarsal joint, and astragalo—tibial joint. For histological analysis, the formalin-fixed left hindlimbs were sectioned and stained with hematoxylin and eosin. The histology of the tarsal joints was evaluated by assessing the following parameters defined in the preliminary examination: inflammatory cell infiltration, synovial cell hyperplasia, cartilage destruction, and bone destruction. The severity of each histological change was scored on a 5-point scale ranging from 0 to 4. (Score 0: normal; Score 1: minimal, solitary (and very small) lesion; Score 2: slight, focal (and small) lesion; Score 3: moderate, scattered lesion; and Score 4: severe, extensive lesion).
# . The hind paw volume (a) and body weight (b) were measured periodically. Images of hematoxylin and eosin staining (c) and radiographs of hindlimbs (e) are shown. Histological change (d) and radiographical change (f) were scored. The results are expressed as mean ± SD. ^# p < 0.05, ^## p < 0.01, versus vehicle by the Steel test
# . The hind paw volume (a) and body weight (b) were measured periodically. Images of hematoxylin and eosin staining (c) and radiographs of hindlimbs (e) are shown. Histological change (d) and radiographical change (f) were scored. The results are expressed as mean ± SD. *p < 0.05, **p < 0.01, versus vehicle by Dunnett’s test. ^# p < 0.05, ^## p < 0.01, versus vehicle by the Steel test
# Fyn = biological target: T22, Fyn (Homo sapiens, UniProt P06241); assay: KinaseProfiler selectivity: Fyn; type: biochemical
# T22 construct: purchased Millipore Co. Ltd. (KinaseProfiler service)
# Experimental: as §1
# Lyn = biological target: T23, Lyn (Homo sapiens, UniProt P07948); assay: KinaseProfiler selectivity: Lyn; type: biochemical
# T23 construct: purchased Millipore Co. Ltd. (KinaseProfiler service)
# Experimental: as §1
# human monocytes = assay: GM-CSF-induced TNF-α production from monocytes (ELISA); conditions: Monocyte, read-out: IC50, GM-CSF enhancement of TNF-α production upon LPS stimulation in monocytes
# Experimental: The cells were then cultured with 0.1 ng/mL lipopolysaccharide (LPS) for an additional 6 h at 37 °C. The supernatants were collected, and secretion of TNF-α was measured by ELISA.
# Flt1 = biological target: T24, Flt1 (Homo sapiens, UniProt P17948); assay: KinaseProfiler selectivity: Flt1; type: biochemical
# T24 construct: purchased Millipore Co. Ltd. (KinaseProfiler service)
# Experimental: as §1
# KDR = biological target: T25, KDR (Homo sapiens, UniProt P35968); assay: KinaseProfiler selectivity: KDR; type: biochemical
# T25 construct: purchased Millipore Co. Ltd. (KinaseProfiler service)
# T25 sequence (P35968 20-1356, species assumed): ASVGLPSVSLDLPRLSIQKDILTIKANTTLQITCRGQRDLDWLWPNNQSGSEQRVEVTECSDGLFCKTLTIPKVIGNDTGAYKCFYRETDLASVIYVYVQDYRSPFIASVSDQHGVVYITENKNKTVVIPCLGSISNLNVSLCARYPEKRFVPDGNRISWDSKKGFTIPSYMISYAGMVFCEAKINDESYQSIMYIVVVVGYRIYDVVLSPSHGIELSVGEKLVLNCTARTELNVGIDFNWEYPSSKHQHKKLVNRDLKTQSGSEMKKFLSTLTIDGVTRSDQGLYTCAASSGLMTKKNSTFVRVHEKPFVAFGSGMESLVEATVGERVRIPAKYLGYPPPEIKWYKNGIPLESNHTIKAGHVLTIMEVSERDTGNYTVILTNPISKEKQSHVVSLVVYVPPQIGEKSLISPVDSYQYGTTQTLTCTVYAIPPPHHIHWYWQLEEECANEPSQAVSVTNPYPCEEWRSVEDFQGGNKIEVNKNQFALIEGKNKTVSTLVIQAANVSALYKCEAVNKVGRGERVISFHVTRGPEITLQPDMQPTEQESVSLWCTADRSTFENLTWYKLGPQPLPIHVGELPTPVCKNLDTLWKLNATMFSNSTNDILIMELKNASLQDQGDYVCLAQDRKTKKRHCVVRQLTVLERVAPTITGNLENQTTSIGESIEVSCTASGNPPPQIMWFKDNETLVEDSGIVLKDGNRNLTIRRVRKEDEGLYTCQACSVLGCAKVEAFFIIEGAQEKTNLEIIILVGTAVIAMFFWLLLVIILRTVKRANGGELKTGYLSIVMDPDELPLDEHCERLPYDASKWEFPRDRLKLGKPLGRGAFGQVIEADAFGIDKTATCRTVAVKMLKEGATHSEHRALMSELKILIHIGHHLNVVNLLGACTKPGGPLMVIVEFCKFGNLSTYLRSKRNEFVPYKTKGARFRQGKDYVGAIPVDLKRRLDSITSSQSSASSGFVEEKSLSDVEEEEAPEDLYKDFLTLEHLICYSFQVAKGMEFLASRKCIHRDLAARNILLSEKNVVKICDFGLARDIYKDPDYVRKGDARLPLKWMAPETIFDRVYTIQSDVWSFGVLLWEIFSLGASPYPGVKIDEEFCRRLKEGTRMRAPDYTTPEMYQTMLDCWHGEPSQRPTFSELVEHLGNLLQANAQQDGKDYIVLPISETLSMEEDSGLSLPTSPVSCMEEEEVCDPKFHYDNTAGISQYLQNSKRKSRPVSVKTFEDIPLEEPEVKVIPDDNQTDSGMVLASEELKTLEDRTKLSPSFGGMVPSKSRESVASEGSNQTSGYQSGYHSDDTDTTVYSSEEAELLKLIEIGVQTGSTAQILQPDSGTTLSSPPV
# Experimental: as §1
# CHK1 = biological target: T26, CHK1 (Homo sapiens, UniProt O14757); assay: KinaseProfiler selectivity: CHK1; type: biochemical
# T26 construct: purchased Millipore Co. Ltd. (KinaseProfiler service)
# Experimental: as §1
structure (smiles),measurement,setting,value
C[C@H]1CN(C(=O)CC#N)[C@]12CCN(c1ncnc3[nH]ccc13)C2 [JTE-052],IC50,cKit,> 1 µM
same,IC50,CDK2/cyclinA,> 1 µM
same,IC50,SGK,> 1 µM
same,IC50,CDK1/cyclinB,> 1 µM
same,IC50,GSK3β,> 1 µM
same,IC50,PDK1,> 1 µM
same,IC50,FGFR3,> 1 µM
same,IC50,PKCζ,> 1 µM
same,IC50,IGF-1R,> 1 µM
same,IC50,SAPK2a,> 1 µM
same,IC50,CK2,> 1 µM
same,IC50,Plk1,> 1 µM
same,IC50,Flt3,> 1 µM
same,IC50,Aurora-A,> 1 µM
same,IC50,IKKβ,> 1 µM
same,IC50,PDGFRα,> 1 µM
same,IC50,JNK2α2,> 1 µM
same,IC50,JNK1α1,> 1 µM
same,IC50,JNK3,> 1 µM
same,IC50,ROCK-II,0.141 µM
same,IC50,CSK,> 1 µM
same,"effect on bone and cartilage destruction (radiographic, histological), preventive administration",[1]; oral once daily from day 1,inhibited radiographic and histological changes of bone destruction and cartilage destruction
same,"effect on hind paw swelling and joint inflammation, preventive administration","[1]; oral once daily from day 1, JTE-052 0.1, 1, 10 mg/kg, MTX 0.3 mg/kg",prevented the development of hind paw swelling
same,IC50,Fyn,> 1 µM
same,IC50,Lyn,> 1 µM
same,IC50,human monocytes,0.277 ± 0.146 µM
same,IC50,Flt1,> 1 µM
same,IC50,KDR,> 1 µM
same,IC50,CHK1,> 1 µM
